Results taken from PubChem BioAssay (NCI).
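Briefly, cells in 96-well plates were exposed to five compound concentrations for 48 h, and endpoints were estimated by linear interpolation. TGI is the concentration that stops growth completely.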

Assays:
Experiment in all cases: DTP human tumour cell line panel, 48 h
786-0 renal = tested on: 786-0 renal
A498 renal = tested on: A498 renal
A549 NSCLC = tested on: A549 NSCLC
ACHN renal = tested on: ACHN renal
BT-549 breast = tested on: BT-549 breast
CAKI-1 renal = tested on: CAKI-1 renal
CCRF-CEM leukemia = tested on: CCRF-CEM leukemia
COLO 205 colon = tested on: COLO 205 colon
DU-145 prostate = tested on: DU-145 prostate
EKVX NSCLC = tested on: EKVX NSCLC
HCC-2998 colon = tested on: HCC-2998 colon
HCT-116 colon = tested on: HCT-116 colon
HCT-15 colon = tested on: HCT-15 colon
HL-60(TB) leukemia = tested on: HL-60(TB) leukemia
HOP-62 NSCLC = tested on: HOP-62 NSCLC
HOP-92 NSCLC = tested on: HOP-92 NSCLC
HS 578T breast = tested on: HS 578T breast
HT29 colon = tested on: HT29 colon
IGROV1 ovarian = tested on: IGROV1 ovarian
K-562 leukemia = tested on: K-562 leukemia
KM12 colon = tested on: KM12 colon
M14 melanoma = tested on: M14 melanoma
MALME-3M melanoma = tested on: MALME-3M melanoma
MCF7 breast = tested on: MCF7 breast
MDA-MB-231 breast = tested on: MDA-MB-231 breast
MDA-MB-435 = tested on: MDA-MB-435
MDA-N = tested on: MDA-N
MOLT-4 leukemia = tested on: MOLT-4 leukemia
NCI-H226 lung = tested on: NCI-H226 lung
NCI-H23 lung = tested on: NCI-H23 lung
NCI-H460 lung = tested on: NCI-H460 lung
NCI-H522 lung = tested on: NCI-H522 lung
NCI/ADR-RES ovarian = tested on: NCI/ADR-RES ovarian
OVCAR-3 ovarian = tested on: OVCAR-3 ovarian
OVCAR-4 ovarian = tested on: OVCAR-4 ovarian
OVCAR-5 ovarian = tested on: OVCAR-5 ovarian
OVCAR-8 ovarian = tested on: OVCAR-8 ovarian
PC-3 prostate = tested on: PC-3 prostate
RPMI-8226 leukemia = tested on: RPMI-8226 leukemia
RXF 393 renal = tested on: RXF 393 renal
SF-268 CNS = tested on: SF-268 CNS
SF-295 CNS = tested on: SF-295 CNS
SF-539 CNS = tested on: SF-539 CNS
SK-MEL-2 melanoma = tested on: SK-MEL-2 melanoma
SK-MEL-5 melanoma = tested on: SK-MEL-5 melanoma
SK-OV-3 ovarian = tested on: SK-OV-3 ovarian
SN12C renal = tested on: SN12C renal
SNB-19 CNS = tested on: SNB-19 CNS
SR leukemia = tested on: SR leukemia
SW-620 colon = tested on: SW-620 colon
TK-10 renal = tested on: TK-10 renal
U251 CNS = tested on: U251 CNS
UACC-257 melanoma = tested on: UACC-257 melanoma
UACC-62 melanoma = tested on: UACC-62 melanoma
UO-31 renal = tested on: UO-31 renal
LOX IMVI melanoma = tested on: LOX IMVI melanoma
SK-MEL-28 melanoma = tested on: SK-MEL-28 melanoma
SNB-75 CNS = tested on: SNB-75 CNS

CC[N+]1(C)CCC(O)(c2ccc(C)cc2)C(C(=O)c2ccc(C)cc2)C1 (stereo not drawn)
TGI (786-0 renal): 34.6 µM | TGI (A498 renal): > 100 µM | TGI (A549 NSCLC): > 100 µM | TGI (ACHN renal): 48 µM | TGI (BT-549 breast): > 100 µM | TGI (CAKI-1 renal): 61.4 µM | TGI (CCRF-CEM leukemia): 44.2 µM | TGI (COLO 205 colon): 55.7 µM | TGI (DU-145 prostate): > 100 µM | TGI (EKVX NSCLC): > 100 µM | TGI (HCC-2998 colon): > 100 µM | TGI (HCT-116 colon): > 100 µM | TGI (HCT-15 colon): 45.9 µM | TGI (HL-60(TB) leukemia): > 100 µM | TGI (HOP-62 NSCLC): > 100 µM | TGI (HOP-92 NSCLC): 46.2 µM | TGI (HS 578T breast): > 100 µM | TGI (HT29 colon): > 100 µM | TGI (IGROV1 ovarian): > 100 µM | TGI (K-562 leukemia): 37.5 µM | TGI (KM12 colon): > 100 µM | TGI (M14 melanoma): > 100 µM | TGI (MALME-3M melanoma): 52.7 µM | TGI (MCF7 breast): 36.9 µM | TGI (MDA-MB-231 breast): 62.3 µM | TGI (MDA-MB-435): > 100 µM | TGI (MDA-N): > 100 µM | TGI (MOLT-4 leukemia): 48.1 µM | TGI (NCI-H226 lung): > 100 µM | TGI (NCI-H23 lung): > 100 µM | TGI (NCI-H460 lung): > 100 µM | TGI (NCI-H522 lung): 41.7 µM | TGI (NCI/ADR-RES ovarian): > 100 µM | TGI (OVCAR-3 ovarian): 39.6 µM | TGI (OVCAR-4 ovarian): 86.3 µM | TGI (OVCAR-5 ovarian): > 100 µM | TGI (OVCAR-8 ovarian): > 100 µM | TGI (PC-3 prostate): > 100 µM | TGI (RPMI-8226 leukemia): 37.3 µM | TGI (RXF 393 renal): 84.9 µM | TGI (SF-268 CNS): > 100 µM | TGI (SF-295 CNS): > 100 µM | TGI (SF-539 CNS): > 100 µM | TGI (SK-MEL-2 melanoma): > 100 µM | TGI (SK-MEL-5 melanoma): > 100 µM | TGI (SK-OV-3 ovarian): > 100 µM | TGI (SN12C renal): > 100 µM | TGI (SNB-19 CNS): > 100 µM | TGI (SR leukemia): 39.6 µM | TGI (SW-620 colon): 39.3 µM | TGI (TK-10 renal): 47.5 µM | TGI (U251 CNS): > 100 µM | TGI (UACC-257 melanoma): > 100 µM | TGI (UACC-62 melanoma): > 100 µM | TGI (UO-31 renal): > 100 µM

N#Cc1nc(C2CCC(=O)O2)oc1N (stereo not drawn)
TGI (786-0 renal): > 100 µM | TGI (A498 renal): > 100 µM | TGI (ACHN renal): > 100 µM | TGI (BT-549 breast): > 100 µM | TGI (CAKI-1 renal): > 100 µM | TGI (CCRF-CEM leukemia): > 100 µM | TGI (COLO 205 colon): > 100 µM | TGI (DU-145 prostate): > 100 µM | TGI (EKVX NSCLC): > 100 µM | TGI (HCT-116 colon): > 100 µM | TGI (HCT-15 colon): > 100 µM | TGI (HL-60(TB) leukemia): > 100 µM | TGI (HOP-62 NSCLC): > 100 µM | TGI (HS 578T breast): > 100 µM | TGI (HT29 colon): > 100 µM | TGI (IGROV1 ovarian): > 100 µM | TGI (K-562 leukemia): > 100 µM | TGI (KM12 colon): > 100 µM | TGI (LOX IMVI melanoma): > 100 µM | TGI (M14 melanoma): > 100 µM | TGI (MALME-3M melanoma): > 100 µM | TGI (MCF7 breast): > 100 µM | TGI (MDA-MB-231 breast): > 100 µM | TGI (MDA-MB-435): > 100 µM | TGI (MDA-N): > 100 µM | TGI (MOLT-4 leukemia): > 100 µM | TGI (NCI-H226 lung): > 100 µM | TGI (NCI-H23 lung): > 100 µM | TGI (NCI-H460 lung): > 100 µM | TGI (NCI/ADR-RES ovarian): > 100 µM | TGI (OVCAR-3 ovarian): > 100 µM | TGI (OVCAR-5 ovarian): > 100 µM | TGI (OVCAR-8 ovarian): > 100 µM | TGI (PC-3 prostate): > 100 µM | TGI (RPMI-8226 leukemia): > 100 µM | TGI (RXF 393 renal): > 100 µM | TGI (SF-268 CNS): > 100 µM | TGI (SF-295 CNS): > 100 µM | TGI (SF-539 CNS): > 100 µM | TGI (SK-MEL-2 melanoma): > 100 µM | TGI (SK-MEL-28 melanoma): > 100 µM | TGI (SK-MEL-5 melanoma): > 100 µM | TGI (SK-OV-3 ovarian): > 100 µM | TGI (SN12C renal): > 100 µM | TGI (SNB-19 CNS): > 100 µM | TGI (SNB-75 CNS): > 100 µM | TGI (SR leukemia): > 100 µM | TGI (SW-620 colon): > 100 µM | TGI (TK-10 renal): > 100 µM | TGI (U251 CNS): > 100 µM | TGI (UACC-257 melanoma): > 100 µM | TGI (UACC-62 melanoma): > 100 µM | TGI (UO-31 renal): > 100 µM
